Source: ChEMBL document CHEMBL1125446 (J Med Chem, 1992)
Positions of bridges follow the written chain, without caps; N, C: chain ends. Non-standard residues stand in square brackets, D forms with d. Residues, ends and D or L forms follow the SMILES beside them.

Key:
Endothelin-1 receptor [1] = biological target: T1, Endothelin-1 receptor (Sus scrofa, UniProt Q29010); test: Compound was evaluated for the binding affinity towards Endothelin A receptor in porcine aortic membranes; assay type: cell membranes
T1 sequence (Q29010 whole entry): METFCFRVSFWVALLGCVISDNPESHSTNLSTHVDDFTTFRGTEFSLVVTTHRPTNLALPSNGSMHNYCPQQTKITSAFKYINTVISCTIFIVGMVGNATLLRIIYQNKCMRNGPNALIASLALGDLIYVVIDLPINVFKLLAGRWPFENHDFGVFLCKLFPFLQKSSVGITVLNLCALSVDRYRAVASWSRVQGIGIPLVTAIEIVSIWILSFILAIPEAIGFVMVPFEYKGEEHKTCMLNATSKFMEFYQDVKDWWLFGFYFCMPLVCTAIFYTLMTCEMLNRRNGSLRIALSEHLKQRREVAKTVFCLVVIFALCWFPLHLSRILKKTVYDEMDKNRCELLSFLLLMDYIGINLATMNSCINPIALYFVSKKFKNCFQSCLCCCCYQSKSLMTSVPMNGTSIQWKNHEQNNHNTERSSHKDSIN

[2] = biological target: T2, Endothelin receptor type B (Rattus norvegicus, UniProt P21451); test: Compound was evaluated for the binding affinity to Endothelin B receptor in the rat hippocampus; assay type: tissue-based
T2 sequence (P21451 whole entry): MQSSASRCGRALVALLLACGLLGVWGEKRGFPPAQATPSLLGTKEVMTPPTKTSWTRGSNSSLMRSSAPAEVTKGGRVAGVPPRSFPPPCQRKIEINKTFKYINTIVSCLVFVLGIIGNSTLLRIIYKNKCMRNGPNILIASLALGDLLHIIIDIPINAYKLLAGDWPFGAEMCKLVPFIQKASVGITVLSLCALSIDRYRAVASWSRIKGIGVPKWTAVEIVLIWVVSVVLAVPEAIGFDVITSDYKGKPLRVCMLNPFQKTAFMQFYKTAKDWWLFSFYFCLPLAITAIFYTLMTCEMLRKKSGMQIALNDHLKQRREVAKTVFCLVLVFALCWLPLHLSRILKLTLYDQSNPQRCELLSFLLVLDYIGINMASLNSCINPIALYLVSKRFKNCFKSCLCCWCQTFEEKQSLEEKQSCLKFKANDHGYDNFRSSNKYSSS

[3] = biological target: T2, Endothelin receptor type B; test: Compound was evaluated for the binding affinity to Endothelin B receptor in the rat cerebellum; assay type: tissue-based
Endothelin-1 receptor [4] = biological target: T3, Endothelin-1 receptor (Rattus norvegicus, UniProt P26684); test: Compound was evaluated for the binding affinity to Endothelin A receptor in the rat atrium; assay type: tissue-based, Cardiac atrium
T3 sequence (P26684 whole entry): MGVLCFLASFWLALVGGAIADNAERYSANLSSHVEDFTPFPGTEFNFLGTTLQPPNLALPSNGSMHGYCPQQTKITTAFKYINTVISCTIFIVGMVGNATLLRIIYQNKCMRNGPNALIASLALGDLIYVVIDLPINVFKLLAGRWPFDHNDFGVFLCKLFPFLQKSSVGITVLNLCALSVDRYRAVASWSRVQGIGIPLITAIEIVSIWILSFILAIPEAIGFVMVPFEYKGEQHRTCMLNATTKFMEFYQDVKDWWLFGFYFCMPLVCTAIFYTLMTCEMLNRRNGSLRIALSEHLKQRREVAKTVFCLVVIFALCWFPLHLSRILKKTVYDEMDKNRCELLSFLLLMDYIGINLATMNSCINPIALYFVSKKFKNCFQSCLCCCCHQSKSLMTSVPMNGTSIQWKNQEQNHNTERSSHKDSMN

Endothelin-1 receptor [5] = biological target: T3, Endothelin-1 receptor; test: Compound was evaluated for the binding affinity to Endothelin A receptor in the rat aorta; assay type: tissue-based
[6] = biological target: T4, Endothelin receptor, ET-A/ET-B (Homo sapiens, UniProt P24530+P25101); test: Compound was evaluated for the Inhibition of the contractile response of Endothelin A receptor in rabbit thoracic aorta; assay type: functional, tissue-based, Oryctolagus cuniculus; settings: target entry is the homologue from another species
T4 sequence (P24530 whole entry): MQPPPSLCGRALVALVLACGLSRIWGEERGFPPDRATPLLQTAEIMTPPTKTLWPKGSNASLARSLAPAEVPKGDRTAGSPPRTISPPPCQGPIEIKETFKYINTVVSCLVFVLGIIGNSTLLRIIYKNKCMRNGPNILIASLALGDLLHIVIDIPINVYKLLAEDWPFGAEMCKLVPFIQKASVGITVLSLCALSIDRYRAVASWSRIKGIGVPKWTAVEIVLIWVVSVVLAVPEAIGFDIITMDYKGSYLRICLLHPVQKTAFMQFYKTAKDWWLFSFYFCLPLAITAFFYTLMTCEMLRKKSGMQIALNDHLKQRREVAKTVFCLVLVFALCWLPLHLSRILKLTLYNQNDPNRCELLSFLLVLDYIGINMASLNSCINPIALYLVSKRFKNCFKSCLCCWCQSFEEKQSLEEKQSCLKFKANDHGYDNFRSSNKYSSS
T4 sequence (P25101 whole entry): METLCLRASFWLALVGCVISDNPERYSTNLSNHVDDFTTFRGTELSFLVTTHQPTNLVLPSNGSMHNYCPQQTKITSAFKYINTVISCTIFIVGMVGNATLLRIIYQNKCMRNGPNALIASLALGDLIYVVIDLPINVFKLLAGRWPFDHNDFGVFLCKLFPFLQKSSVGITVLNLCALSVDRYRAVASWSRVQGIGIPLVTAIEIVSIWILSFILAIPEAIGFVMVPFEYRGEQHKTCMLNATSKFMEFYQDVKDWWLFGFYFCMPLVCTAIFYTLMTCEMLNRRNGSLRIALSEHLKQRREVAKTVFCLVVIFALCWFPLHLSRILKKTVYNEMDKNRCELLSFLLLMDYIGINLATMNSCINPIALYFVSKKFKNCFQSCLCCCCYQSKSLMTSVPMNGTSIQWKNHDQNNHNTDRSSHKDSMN

Rattus norvegicus = organism: Rattus norvegicus; test: Compound was evaluated for the Inositol phosphate accumulation in rat skin fibroblasts.; assay type: functional
Endothelin-1 receptor [7] = biological target: T1, Endothelin-1 receptor; test: Compound was evaluated for the binding affinity to Endothelin A receptor in the porcine aortic smooth muscle

Question: How did the IC50 (Endothelin-1 receptor [1]) turn out when CC(C)C[C@H](NC(=O)N1CCCCCC1)C(=O)N(C)[C@H](Cc1c[nH]c2ccccc12)C(=O)N[C@H](Cc1ccccn1)C(=O)N(C)CC(=O)O was run?
Answer: 7600 nM

Question: For CNC(=O)[C@H](Cc1ccccn1)NC(=O)[C@@H](Cc1c[nH]c2ccccc12)N(C)C(=O)[C@@H](CC(=O)N1CCCCCC1)CC(C)C, which IC50 (Endothelin-1 receptor [1]) is on record?
Answer: 7600 nM

Question: CC(C)C[C@H](NC(=O)N1CCCCCC1)C(=O)N(C)[C@H](Cc1c[nH]c2ccccc12)C(=O)N[C@H](Cc1ccccn1)C(=O)N[C@@H](Cc1ccccc1)C(=O)O was tested. Which IC50 (Endothelin-1 receptor [1]) did it give?
Answer: 21000 nM

Question: For CC(C)C[C@H](NC(=O)N1CCCCCC1)C(=O)N(C)[C@H](Cc1c[nH]c2ccccc12)C(=O)N[C@H](Cc1ccccn1)C(=O)O, which IC50 (Endothelin-1 receptor [1]) is on record?
Answer: 2500 nM

Question: For CC(C)C[C@H](NC(=O)Cc1ccccc1Cl)C(=O)N(C)[C@H](Cc1c[nH]c2ccccc12)C(=O)N[C@H](CC(C)C)C(=O)O, which IC50 (Endothelin-1 receptor [1]) is on record?
Answer: 32000 nM

Question: What does the source list for CC[C@H](C)[C@H](NC(=O)[C@@H](NC(=O)[C@H](CC(=O)O)NC(=O)[C@H](CCC(N)=O)NC(=O)[C@H](Cc1cnc[nH]1)NC(=O)[C@@H]1CSSC[C@H](N)C(=O)N[C@@H]([C@@H](C)O)C(=O)N[C@H]2CSSC[C@H](NC(=O)[C@H](CCC(=O)O)NC(=O)[C@H](CCC(=O)O)NC(=O)[C@H](CC(=O)O)NC(=O)[C@H]([C@@H](C)O)NC(=O)[C@H](CCSC)NC(=O)[C@H](CC(=O)O)NC(=O)[C@H](CC(N)=O)NC2=O)C(=O)N[C@@H](CC(C)C)C(=O)N[C@@H](CC(N)=O)C(=O)N[C@@H](Cc2ccccc2)C(=O)N1)C(C)C)C(=O)N[C@@H](Cc1c[nH]c2ccccc12)C(=O)O?
Answer: Ki [2]: 0.023 nM; Ki [3]: 0.016 nM; Ki (Endothelin-1 receptor [4]): 4200 nM; Ki (Endothelin-1 receptor [5]): > 5000 nM

Question: For CC(C)C[C@H](NC(=O)C1CCCCC1)C(=O)N(C)[C@H](Cc1c[nH]c2ccccc12)C(=O)N[C@H](Cc1ccccn1)C(=O)O.Cl, which IC50 [6] is on record?
Answer: 230000 nM

Question: And the IC50 (Endothelin-1 receptor [1])?
Answer: 2300 nM

Question: How did the IC50 (Rattus norvegicus) turn out when CC[C@@H](C)[C@@H](NC(=O)[C@@H](NC(=O)[C@H](CC(=O)O)NC(=O)[C@H](CC(C)C)NC(=O)[C@H](Cc1c[nH]cn1)NC(C)=O)[C@@H](C)CC)C(=O)N[C@@H](Cc1c[nH]c2ccccc12)C(=O)O (Ac-HLDI[dI]W-OH) was run?
Answer: < 50000 nM

Question: CC[C@H](C)[C@H](NC(=O)[C@H](CC(=O)O)NC(=O)[C@H](CC(C)C)NC(=O)[C@@H](Cc1c[nH]cn1)NC(C)=O)C(=O)N[C@H](C(=O)N[C@@H](Cc1c[nH]c2ccccc12)C(=O)O)[C@@H](C)CC (Ac-[dH]LDIIW-OH) was tested. Which IC50 (Rattus norvegicus) did it give?
Answer: 1400 nM

Question: What does the source list for CC[C@H](C)[C@H](NC(=O)[C@@H](NC(=O)[C@H](CC(=O)O)NC(=O)[C@H](CCC(N)=O)NC(=O)[C@H](Cc1cnc[nH]1)NC(=O)[C@@H]1CSSC[C@H](N)C(=O)N[C@@H](CO)C(=O)N[C@H]2CSSC[C@H](NC(=O)[C@H](CCC(=O)O)NC(=O)[C@H](CCCCN)NC(=O)[C@H](CC(=O)O)NC(=O)[C@H]([C@@H](C)O)NC(=O)[C@H](CCSC)NC(=O)[C@H](CC(=O)O)NC(=O)[C@H](CCCCN)NC2=O)C(=O)N[C@@H](CC(C)C)C(=O)N[C@@H](Cc2ccc(O)cc2)C(=O)N[C@@H](Cc2ccccc2)C(=O)N1)C(C)C)C(=O)N[C@@H](Cc1c[nH]c2ccccc12)C(=O)O (H-CSCKDMTDKECLYFCHQDVIW-OH; disulfide 1-15, 3-11)?
Answer: Ki [2]: 0.012 nM; Ki [3]: 0.013 nM; Ki (Endothelin-1 receptor [4]): 0.087 nM; Ki (Endothelin-1 receptor [5]): 0.24 nM

Question: CC(C)C[C@@H]1NC(=O)[C@@H](C(C)C)NC(=O)[C@H](C)NC(=O)[C@@H](CCC(=O)O)NC(=O)[C@@H](Cc2c[nH]c3ccccc23)NC1=O (single isomer, unassigned) was tested. Which IC50 (Endothelin-1 receptor [7]) did it give?
Answer: 1400 nM

Question: CC(C)C[C@@H]1NC(=O)[C@@H](C(C)C)NC(=O)[C@@H]2CCCN2C(=O)[C@@H](CC(=O)O)NC(=O)[C@@H](Cc2c[nH]c3ccccc23)NC1=O [BQ-123] (cyclo(L[dW][dD]P[dV])) was tested. Which IC50 (Endothelin-1 receptor [7]) did it give?
Answer: 22000 nM

Question: What does the source list for CC[C@H](C)[C@H](NC(=O)[C@H](CC(=O)O)NC(=O)[C@H](CC(C)C)NC(=O)[C@H](Cc1c[nH]cn1)NC(=O)[C@@H]1CSSC[C@H](N)C(=O)N[C@@H]([C@@H](C)O)C(=O)N[C@H]2CSSC[C@H](NC(=O)[C@H](CCC(=O)O)NC(=O)[C@H](CCCCN)NC(=O)[C@H](CC(=O)O)NC(=O)[C@H](CCCCN)NC(=O)[C@H](Cc3ccc(O)cc3)NC(=O)[C@H]([C@@H](C)O)NC(=O)[C@H](Cc3ccccc3)NC2=O)C(=O)N[C@@H](C(C)C)C(=O)N[C@@H](Cc2ccc(O)cc2)C(=O)N[C@@H](Cc2ccc(O)cc2)C(=O)N1)C(=O)N[C@H](C(=O)N[C@@H](Cc1c[nH]c2ccccc12)C(=O)O)[C@@H](C)CC [ENDOTHELIN 3]?
Answer: Ki [2]: 0.036 nM; Ki [3]: 0.021 nM; Ki (Endothelin-1 receptor [4]): 1.6 nM; Ki (Endothelin-1 receptor [5]): 2.5 nM

Question: For Ac-HLDIIW-OH, which IC50 (Rattus norvegicus) is on record?
Answer: < 50000 nM

Question: For H-HLDIIW-OH, which IC50 (Rattus norvegicus) is on record?
Answer: < 50000 nM
